Numbered stars: 1 amine (or outer) side, 2 acyl side, 3 side chain; on linkers, the order of the positions; unused ones are H or OH. Bridge positions count the residues as written; N and C are the ends. Square brackets hold non-standard residues; d marks the D form. Peptide text beside a SMILES is read from it. Ala(2-carboxypyrimidin-5-yl) = N[C@@H](Cc1cnc(C(=O)O)nc1)C(=O)O; Trp(βS-Me,7-OMe) = COc1cccc2c([C@H](C)[C@H](N)C(=O)O)c[nH]c12; Ala(1-bicyclo(1.1.1)pentyl) = N[C@@H](CC12CC(C1)C2)C(=O)O; Trp(7-CN) = N#Cc1cccc2c(C[C@H](N)C(=O)O)c[nH]c12; Trp(7-Cl) = N[C@@H](Cc1c[nH]c2c(Cl)cccc12)C(=O)O; Ala(pyrimidin-5-yl) = N[C@@H](Cc1cncnc1)C(=O)O; Phe(3-COOH) = N[C@@H](Cc1cccc(C(=O)O)c1)C(=O)O; Phe(4-CONH2) = NC(=O)c1ccc(C[C@H](N)C(=O)O)cc1; Phe(4-COOH) = N[C@@H](Cc1ccc(C(=O)O)cc1)C(=O)O; 4Pal(3S-Me) = C[C@@H](c1ccncc1)[C@H](N)C(=O)O; Trp(7-aza) = N[C@@H](Cc1c[nH]c2ncccc12)C(=O)O; X18 = O=C([C@@H]1C=C[C@H](N[*:1])C1)[*:2]; Pip(5R-OH) = O=C(O)[C@@H]1CC[C@@H](O)CN1; Nle(6-COOH) = N[C@@H](CCCCC(=O)O)C(=O)O; X1 = O=C([C@@H]1CC[C@H](N[*:1])C1)[*:2]; Val(3-OH) = CC(C)(O)[C@H](N)C(=O)O; X40 = CCN([C@H](C)C(=O)[*:2])[*:1]; Pip(4-aza) = O=C(O)[C@@H]1CNCCN1; 4Pal = N[C@@H](Cc1ccncc1)C(=O)O; NMeE = CN[C@@H](CCC(=O)O)C(=O)O; dHyp = O=C(O)[C@H]1C[C@H](O)CN1; Ahp(2) = CCCCC[C@H](N)C(=O)O; hSer = N[C@@H](CCO)C(=O)O; αMeS = C[C@](N)(CO)C(=O)O; Nle = CCCC[C@H](N)C(=O)O; Sar = CNCC(=O)O
Experiments:
[1] = molecular target: T1, human soluble TNFR1 (sTNFR1) (Homo sapiens, UniProt P19438); assay: Human sTNFR1-peptide displacement assay (LanthaScreen Eu TR-FRET binding assay)
T1 construct: made in house; host or cells: Sf21 (baculovirus)
T1 sequence (P19438 with tags, fused parts or gaps): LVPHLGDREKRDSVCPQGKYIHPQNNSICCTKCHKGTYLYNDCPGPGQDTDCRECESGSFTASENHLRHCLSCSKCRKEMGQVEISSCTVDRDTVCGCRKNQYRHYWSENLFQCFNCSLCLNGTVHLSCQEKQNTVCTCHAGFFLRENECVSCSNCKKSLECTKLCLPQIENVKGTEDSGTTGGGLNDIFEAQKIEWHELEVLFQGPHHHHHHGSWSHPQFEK
In short: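 Readout is the 665/615 nm TR-FRET ratio (Eu anti-His donor, streptavidin-Alexa647 acceptor), normalized to DMSO and saturating displacer, fit by Morrison-based five-parameter logistic for Kd^app. His-tagged sTNFR1 (1-211) prebound to 100 nM biotinylated peptide SEQ ID NO.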

[2] = molecular target: T2, TNFα-induced NF-κB signal transduction pathway (TNFR1 signaling) in THP-1 cells (Homo sapiens, UniProt P19438); assay: THP-1 Lucia NF-κB reporter cell assay, inhibition of TNFα-induced NF-κB signaling; format: cell-based; conditions: THP-1 NF-κB Lucia reporter cells, 10 ng/mL TNFα, 16-18 h, secreted luciferase; read-out: THP-1 IC50
T2 sequence (P19438 30-455): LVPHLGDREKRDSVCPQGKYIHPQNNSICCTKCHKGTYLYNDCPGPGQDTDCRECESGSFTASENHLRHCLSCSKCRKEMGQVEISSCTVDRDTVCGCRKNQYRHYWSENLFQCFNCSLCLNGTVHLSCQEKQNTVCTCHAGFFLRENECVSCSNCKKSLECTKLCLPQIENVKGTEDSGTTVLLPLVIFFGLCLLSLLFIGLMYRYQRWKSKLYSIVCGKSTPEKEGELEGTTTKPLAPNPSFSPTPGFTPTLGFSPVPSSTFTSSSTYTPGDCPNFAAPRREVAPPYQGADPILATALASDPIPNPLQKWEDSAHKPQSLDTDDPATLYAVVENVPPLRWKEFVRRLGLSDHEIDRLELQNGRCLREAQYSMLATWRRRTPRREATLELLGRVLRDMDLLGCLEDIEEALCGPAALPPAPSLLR
In short: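 IC50 from a 4-parameter logistic fit of secreted luciferase luminescence (QUANTI-Luc), normalised to min/max controls. Reporter THP-1 cells were exposed to peptides for 1 h at 37 °C before 10 ng/mL TNFα (final) was added overnight (16–18 h).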

Compound | Kd [1] [nM] | IC50 [2] [nM] | IC50 [1] [nM]
CCCCC[C@@H]1NC(=O)[C@@H]2CC[C@@H](C2)NC(=O)[C@H]([C@@H](C)c2c[nH]c3c(OC)cccc23)NC(=O)CN(C)C(=O)[C@H](Cc2ccc(C(N)=O)cc2)NC(=O)[C@H](Cc2ccc(C(N)=O)cc2)NC(=O)[C@](C)(CO)NC(=O)[C@H](Cc2c[nH]c3c(C#N)cccc23)NC(=O)[C@H](Cc2ccc(C(=O)O)cc2)NC(=O)[C@H](CC(N)=O)NC(=O)[C@H]2C[C@H](O)CN2C(=O)[C@H](Cc2c[nH]c3ccccc23)NC(=O)[C@H](CCCCC(=O)O)NC(=O)[C@H]([C@@H](C)c2ccncc2)NC1=O [SEQ ID NO. 176] (cyclo([Ahp(2)][4Pal(3S-Me)][Nle(6-COOH)]W[dHyp]N[Phe(4-COOH)][Trp(7-CN)][αMeS][Phe(4-CONH2)][Phe(4-CONH2)][Sar][Trp(βS-Me,7-OMe)][X1])) | 0.22 | 1 | 
CCCC[C@@H]1NC(=O)CSC[C@@H](C(N)=O)NC(=O)[C@H]([C@@H](C)c2c[nH]c3c(OC)cccc23)NC(=O)CN(C)C(=O)[C@H](Cc2ccc(O)cc2)NC(=O)[C@H](Cc2ccc(C(=O)O)cc2)NC(=O)[C@](C)(CO)NC(=O)[C@H](Cc2c[nH]c3c(Cl)cccc23)NC(=O)[C@H](Cc2ccncc2)NC(=O)[C@H](CC(N)=O)NC(=O)[C@H](CCC(=O)O)N(C)C(=O)[C@H](Cc2c[nH]c3ncccc23)NC(=O)[C@H](C(C)(C)O)NC(=O)[C@H](Cc2cncnc2)NC1=O [SEQ ID NO. 177] ({CH2CO}-[Nle][Ala(pyrimidin-5-yl)][Val(3-OH)][Trp(7-aza)][NMeE]N[4Pal][Trp(7-Cl)][αMeS][Phe(4-COOH)]Y[Sar][Trp(βS-Me,7-OMe)]C-NH2; thioether N-14) | 0.54 | 3.3 | 
CCCC[C@@H]1NC(=O)[C@@H]2CC[C@@H](C2)NC(=O)[C@H]([C@@H](C)c2c[nH]c3c(OC)cccc23)NC(=O)CN(C)C(=O)[C@H](Cc2c[nH]cn2)NC(=O)[C@H](Cc2ccc(C(=O)O)cc2)NC(=O)[C@](C)(CO)NC(=O)[C@H](Cc2c[nH]c3c(Cl)cccc23)NC(=O)[C@H](Cc2ccncc2)NC(=O)[C@H](CC(N)=O)NC(=O)[C@H](CCC(=O)O)N(C)C(=O)[C@H](Cc2c[nH]c3ccccc23)NC(=O)[C@@H]2CNCCN2C(=O)[C@H](Cc2ccncc2)NC1=O [SEQ ID NO. 178] (cyclo([4Pal][Trp(7-Cl)][αMeS][Phe(4-COOH)]H[Sar][Trp(βS-Me,7-OMe)][X1][Nle][4Pal][Pip(4-aza)]W[NMeE]N)) | 0.29 | 3.3 | 
CCCC[C@@H]1NC(=O)[C@@H]2CC[C@@H](C2)NC(=O)[C@H]([C@@H](C)c2c[nH]c3c(OC)cccc23)NC(=O)CN(C)C(=O)[C@H](Cc2ccc(O)cc2)NC(=O)[C@H](Cc2ccc(C(=O)O)cc2)NC(=O)[C@](C)(CO)NC(=O)[C@H](Cc2c[nH]c3c(Cl)cccc23)NC(=O)[C@H](Cc2ccncc2)NC(=O)[C@H](CCOC)NC(=O)[C@H](CCC(=O)O)N(C)C(=O)[C@H](Cc2c[nH]c3ccccc23)NC(=O)[C@@H]2CNCCN2C(=O)[C@H](Cc2ccncc2)NC1=O [SEQ ID NO. 181] (cyclo([4Pal][Trp(7-Cl)][αMeS][Phe(4-COOH)]Y[Sar][Trp(βS-Me,7-OMe)][X1][Nle][4Pal][Pip(4-aza)]W[NMeE][hSer](Me))) | 0.34 | 1.2 | 
CCCC[C@@H]1NC(=O)[C@@H]2C=C[C@@H](C2)NC(=O)[C@H]([C@@H](C)c2c[nH]c3c(OC)cccc23)NC(=O)CN(C)C(=O)[C@H](Cc2ccc(O)cc2)NC(=O)[C@H](Cc2ccc(C(=O)O)cc2)NC(=O)[C@](C)(CO)NC(=O)[C@H](Cc2c[nH]c3c(Cl)cccc23)NC(=O)[C@H](Cc2ccncc2)NC(=O)[C@H](CC(N)=O)NC(=O)[C@H](CCC(=O)O)N(C)C(=O)[C@H](Cc2c[nH]c3ccccc23)NC(=O)[C@@H]2CNCCN2C(=O)[C@H](Cc2ccncc2)NC1=O [SEQ ID NO. 182] (cyclo([4Pal][Trp(7-Cl)][αMeS][Phe(4-COOH)]Y[Sar][Trp(βS-Me,7-OMe)][X18][Nle][4Pal][Pip(4-aza)]W[NMeE]N)) | 0.2 | 0.9 | 
CCCC[C@@H]1NC(=O)CSC[C@@H](C(N)=O)NC(=O)[C@H]([C@@H](C)c2c[nH]c3c(OC)cccc23)NC(=O)CN(C)C(=O)[C@H](Cc2cccc(C(=O)O)c2)NC(=O)[C@H](Cc2ccc(C(N)=O)cc2)NC(=O)[C@](C)(CO)NC(=O)[C@H](Cc2c[nH]c3c(Cl)cccc23)NC(=O)[C@H](Cc2ccc(C(N)=O)cc2)NC(=O)[C@H](CC(N)=O)NC(=O)[C@H](CCC(=O)O)N(C)C(=O)[C@H](Cc2c[nH]c3ccccc23)NC(=O)[C@@H]2CNCCN2C(=O)[C@H](Cc2ccncc2)NC1=O [SEQ ID NO. 184] ({CH2CO}-[Nle][4Pal][Pip(4-aza)]W[NMeE]N[Phe(4-CONH2)][Trp(7-Cl)][αMeS][Phe(4-CONH2)][Phe(3-COOH)][Sar][Trp(βS-Me,7-OMe)]C-NH2; thioether N-14) |  | 1.7 | 0.5
CCCC[C@@H]1NC(=O)CSC[C@@H](C(N)=O)NC(=O)[C@H]([C@@H](C)c2c[nH]c3c(OC)cccc23)NC(=O)CN(C)C(=O)[C@H](Cc2ccc(O)cc2)NC(=O)[C@H](Cc2ccc(C(N)=O)cc2)NC(=O)[C@](C)(CO)NC(=O)[C@H](Cc2c[nH]c3c(Cl)cccc23)NC(=O)[C@H](Cc2ccc(C(=O)O)cc2)NC(=O)[C@H](CC(N)=O)NC(=O)[C@H]2C[C@H](O)CN2C(=O)[C@H](Cc2c[nH]c3ccccc23)NC(=O)[C@@H]2CC[C@@H](O)CN2C(=O)[C@H](Cc2ccncc2)NC1=O [SEQ ID NO. 185] ({CH2CO}-[Nle][4Pal][Pip(5R-OH)]W[dHyp]N[Phe(4-COOH)][Trp(7-Cl)][αMeS][Phe(4-CONH2)]Y[Sar][Trp(βS-Me,7-OMe)]C-NH2; thioether N-14) | 0.16 | 0.9 | 0.2
CCCC[C@@H]1NC(=O)CSC[C@@H](C(N)=O)NC(=O)[C@H]([C@@H](C)c2c[nH]c3c(OC)cccc23)NC(=O)CN(C)C(=O)[C@H](Cc2ccc(O)cc2)NC(=O)[C@H](Cc2ccc(C(N)=O)cc2)NC(=O)[C@](C)(CO)NC(=O)[C@H](Cc2c[nH]c3c(Cl)cccc23)NC(=O)[C@H](Cc2ccncc2)NC(=O)[C@H](CC(N)=O)NC(=O)[C@@H](C)N(CC)C(=O)[C@H](Cc2c[nH]c3ccccc23)NC(=O)[C@@H]2CC[C@@H](O)CN2C(=O)[C@H](Cc2ccncc2)NC1=O [SEQ ID NO. 186] ({CH2CO}-[Nle][4Pal][Pip(5R-OH)]W[X40]N[4Pal][Trp(7-Cl)][αMeS][Phe(4-CONH2)]Y[Sar][Trp(βS-Me,7-OMe)]C-NH2; thioether N-14) | 0.42 | 1.9 | 0.5
COc1cccc2c([C@H](C)[C@@H]3NC(=O)CN(C)C(=O)[C@H](Cc4ccc(O)cc4)NC(=O)[C@H](Cc4ccc(C(=O)O)cc4)NC(=O)[C@](C)(CO)NC(=O)[C@H](Cc4c[nH]c5c(Cl)cccc45)NC(=O)[C@H](Cc4ccncc4)NC(=O)[C@H](CC(N)=O)NC(=O)[C@H](CCC(=O)O)N(C)C(=O)[C@H](Cc4c[nH]c5ccccc45)NC(=O)[C@@H]4CNCCN4C(=O)[C@H](Cc4ccncc4)NC(=O)[C@H](CC45CC(C4)C5)NC(=O)[C@@H]4CC[C@@H](C4)NC3=O)c[nH]c12 [SEQ ID NO. 190] (cyclo([4Pal][Trp(7-Cl)][αMeS][Phe(4-COOH)]Y[Sar][Trp(βS-Me,7-OMe)][X1][Ala(1-bicyclo(1.1.1)pentyl)][4Pal][Pip(4-aza)]W[NMeE]N)) | 0.33 | 1.6 | 
CCCC[C@@H]1NC(=O)[C@@H]2CC[C@@H](C2)NC(=O)[C@H]([C@@H](C)c2c[nH]c3c(OC)cccc23)NC(=O)CN(C)C(=O)[C@H](Cc2cnc(C(=O)O)nc2)NC(=O)[C@H](Cc2ccc(C(N)=O)cc2)NC(=O)[C@](C)(CO)NC(=O)[C@H](Cc2c[nH]c3c(Cl)cccc23)NC(=O)[C@H](Cc2ccc(C(=O)O)cc2)NC(=O)[C@H](CC(N)=O)NC(=O)[C@H]2C[C@H](O)CN2C(=O)[C@H](Cc2c[nH]c3ccccc23)NC(=O)[C@@H]2CC[C@@H](O)CN2C(=O)[C@H](Cc2ccncc2)NC1=O [SEQ ID NO. 191] (cyclo([4Pal][Pip(5R-OH)]W[dHyp]N[Phe(4-COOH)][Trp(7-Cl)][αMeS][Phe(4-CONH2)][Ala(2-carboxypyrimidin-5-yl)][Sar][Trp(βS-Me,7-OMe)][X1][Nle])) | 0.18 | 1.6 | 
